Among the data in patent publication US9701689B2, “Substituted pyridines and pyridazines as CCR10 receptor inhibitors” (KYOWA HAKKO KIRIN CO., LTD., priority 2012, dated 2017) are inhibition values, retold here.

In this assay the target is T1, human CCR10 (Homo sapiens, UniProt P46092).
T1 construct: expressed in transfected cells; host or cells: KJMGER8 cells (Namalwa cell-derived line), beta-estradiol-induced; hCCR10G16 cells
T1 sequence (P46092 1-362): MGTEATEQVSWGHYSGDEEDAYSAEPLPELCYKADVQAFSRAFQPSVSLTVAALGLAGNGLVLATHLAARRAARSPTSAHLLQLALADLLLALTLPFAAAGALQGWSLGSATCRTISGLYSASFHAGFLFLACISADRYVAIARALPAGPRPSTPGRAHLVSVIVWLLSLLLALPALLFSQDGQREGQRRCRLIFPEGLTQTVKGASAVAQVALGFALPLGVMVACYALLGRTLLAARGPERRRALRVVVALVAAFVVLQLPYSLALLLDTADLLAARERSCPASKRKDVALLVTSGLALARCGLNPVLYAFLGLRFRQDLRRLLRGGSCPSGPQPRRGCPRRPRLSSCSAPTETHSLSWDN
Nature of the assay: CCR10 antagonistic effect: calcium assay of human CCR10 (CTACK-induced increase of intracellular calcium in hCCR10G16 cells). The class given is cell-based. Particulars: at a concentration of not more than 1000 nmol/L; human CCR10-expressing hCCR10G16 cells, 300 nmol/L CTACK added; read-out: inhibition of increase in the calcium ion concentration. Summed up:
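Inhibition of CTACK-evoked calcium flux (max minus min Fluo-3 fluorescence over ~5 min, FDSS) was calculated against control in β-estradiol-induced human CCR10/Gα16 KJMGER8 cells, after 30 min compound preincubation at 37 °C; CTACK added from a 300 nmol/L solution.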

The structures appear in SMILES notation. A value given as a limit tells only on which side of the number the result lay.

Take `Cc1cccc(F)c1Nc1cc(S(N)(=O)=O)ncc1C(=O)N1CCC(c2ccc(F)cc2)CC1` [Compound 72, 4-(2-fluoro-6-methylphenylamino)-5-[4-(4-fluorophenyl)piperidine-1-carbonyl]pyridine-2-sulfonamide]: the inhibition at up to 1 µM is at least 50%.

With `NS(=O)(=O)c1cc(Nc2c(F)cccc2F)c(C(=O)N2CCC(c3ccc(F)cc3)CC2)cn1` [Compound 73, 4-(2,6-difluorophenylamino)-5-[4-(4-fluorophenyl)piperidine-1-carbonyl]pyridine-2-sulfonamide], the inhibition at up to 1 µM is at least 50%.

`NS(=O)(=O)c1cc(Nc2cccc(F)c2Cl)c(C(=O)N2CCC(c3ccc(F)cc3)CC2)cn1` [Compound 74, 4-(2-chloro-3-fluorophenylamino)-5-[4-(4-fluorophenyl)piperidine-1-carbonyl]pyridine-2-sulfonamide]: the inhibition at up to 1 µM was at least 50%.

Consider `NS(=O)(=O)c1cc(Nc2ccc(Cl)c(F)c2Cl)c(C(=O)N2CCC(c3ccc(F)cc3)CC2)cn1` [Compound 75, 4-(2,4-dichloro-3-fluorophenylamino)-5-[4-(4-fluorophenyl)piperidine-1-carbonyl]pyridine-2-sulfonamide], for which the inhibition at up to 1 µM was at least 50%.

In the case of `Cc1cccc(Nc2cc(S(N)(=O)=O)ncc2C(=O)N2CCC(c3ccc(F)cc3)CC2)c1F` [Compound 76, 4-(2-fluoro-3-methylphenylamino)-5-[4-(4-fluorophenyl)piperidine-1-carbonyl]pyridine-2-sulfonamide], the inhibition at up to 1 µM is at least 50%.

For `Cc1c(Cl)ccc(Nc2cc(S(N)(=O)=O)ncc2C(=O)N2CCC(c3ccc(F)cc3)CC2)c1F` [Compound 77, 4-(4-chloro-2-fluoro-3-methylphenylamino)-5-[4-(4-fluorophenyl)piperidine-1-carbonyl]pyridine-2-sulfonamide], the inhibition at up to 1 µM is at least 50%.

Consider `COc1ccc(Nc2cc(S(N)(=O)=O)ncc2C(=O)N2CCC(c3ccc(F)cc3)CC2)c(C)c1` [Compound 78, 5-[4-(4-fluorophenyl)piperidine-1-carbonyl]-4-(4-methoxy-2-methylphenylamino)pyridine-2-sulfonamide], for which the inhibition at up to 1 µM was at least 50%.

Turning to `Cc1ccc(Nc2cc(S(N)(=O)=O)ncc2C(=O)N2CCC(c3ccc(F)cc3)CC2)cc1Cl` [Compound 79, 4-(3-chloro-4-methylphenylamino)-5-[4-(4-fluorophenyl)piperidine-1-carbonyl]pyridine-2-sulfonamide], the inhibition at up to 1 µM was at least 50%.

Consider `NS(=O)(=O)c1cc(Nc2ccc(Cl)cc2F)c(C(=O)N2CCC(c3ccc(F)cc3)CC2)cn1` [Compound 80, 4-(4-chloro-2-fluorophenylamino)-5-[4-(4-fluorophenyl)piperidine-1-carbonyl]pyridine-2-sulfonamide], for which the inhibition at up to 1 µM was at least 50%.

On to `NS(=O)(=O)c1cc(Nc2ccc(Cl)cc2Cl)c(C(=O)N2CCC(c3ccc(F)cc3)CC2)cn1` [Compound 81, 4-(2,4-dichlorophenylamino)-5-[4-(4-fluorophenyl)piperidine-1-carbonyl]pyridine-2-sulfonamide], for which the inhibition at up to 1 µM was at least 50%.

On to `NS(=O)(=O)c1cc(Nc2ccc(Cl)cc2)c(C(=O)N2CCC(c3ccc(F)cc3)CC2)cn1` [Compound 82, 4-(4-chlorophenylamino)-5-[4-(4-fluorophenyl)piperidine-1-carbonyl]pyridine-2-sulfonamide], for which the inhibition at up to 1 µM was at least 50%.

For `Cc1cc(Nc2cc(S(N)(=O)=O)ncc2C(=O)N2CCC(c3ccc(F)cc3)CC2)ccc1F` [Compound 83, 4-(4-fluoro-3-methylphenylamino)-5-[4-(4-fluorophenyl)piperidine-1-carbonyl]pyridine-2-sulfonamide], the inhibition at up to 1 µM is at least 50%.

On to `COc1ccc(Nc2cc(S(N)(=O)=O)ncc2C(=O)N2CCC(c3ccc(F)cc3)CC2)cc1` [Compound 84, 5-[4-(4-fluorophenyl)piperidine-1-carbonyl]-4-(4-methoxyphenylamino)pyridine-2-sulfonamide], for which the inhibition at up to 1 µM is at least 50%.

Regarding `COc1ccc(Nc2cc(S(N)(=O)=O)ncc2C(=O)N2CCC(c3ccc(F)cc3)CC2)cc1F` [Compound 86, 4-(3-fluoro-4-methoxyphenylamino)-5-[4-(4-fluorophenyl)piperidine-1-carbonyl]pyridine-2-sulfonamide], the inhibition at up to 1 µM is at least 50%.

As for `COc1ccc(Nc2cc(S(N)(=O)=O)ncc2C(=O)N2CCC(c3ccc(F)cc3)CC2)c(F)c1` [Compound 87, 4-(2-fluoro-4-methoxyphenylamino)-5-[4-(4-fluorophenyl)piperidine-1-carbonyl]pyridine-2-sulfonamide], the inhibition at up to 1 µM was at least 50%.

Regarding `COc1ccc(Nc2cc(S(N)(=O)=O)ncc2C(=O)N2CCC(c3ccc(F)cc3)CC2)cc1C` [Compound 88, 5-[4-(4-fluorophenyl)piperidine-1-carbonyl]-4-(4-methoxy-3-methylphenylamino)pyridine-2-sulfonamide], the inhibition at up to 1 µM was at least 50%.

As to `COc1ccc(Nc2cc(S(N)(=O)=O)ncc2C(=O)N2CCC(c3ccc(F)cc3)CC2)cc1C(F)(F)F` [Compound 89, 5-[4-(4-fluorophenyl)piperidine-1-carbonyl]-4-[4-methoxy-3-(trifluoromethyl)phenylamino]pyridine-2-sulfonamide], the inhibition at up to 1 µM is at least 50%.

As to `NS(=O)(=O)c1cc(Nc2ccc(Br)cc2Cl)c(C(=O)N2CCC(c3ccc(F)cc3)CC2)cn1` [Compound 90, 4-(4-bromo-2-chlorophenylamino)-5-[4-(4-fluorophenyl)piperidine-1-carbonyl]pyridine-2-sulfonamide], the inhibition at up to 1 µM was at least 50%.

`NS(=O)(=O)c1cc(Nc2ccc(Br)cc2F)c(C(=O)N2CCC(c3ccc(F)cc3)CC2)cn1` [Compound 91, 4-(4-bromo-2-fluorophenylamino)-5-[4-(4-fluorophenyl)piperidine-1-carbonyl]pyridine-2-sulfonamide]: the inhibition at up to 1 µM was at least 50%.

With `COc1ccc(Nc2cc(S(N)(=O)=O)ncc2C(=O)N2CCC(c3ccc(F)cc3)CC2)c(Cl)c1` [Compound 92, 4-(2-chloro-4-methoxyphenylamino)-5-[4-(4-fluorophenyl)piperidine-1-carbonyl]pyridine-2-sulfonamide], the inhibition at up to 1 µM was at least 50%.

For `COc1ccc(C)c(Nc2cc(S(N)(=O)=O)ncc2C(=O)N2CCC(c3ccc(F)cc3)CC2)c1` [Compound 93, 5-[4-(4-fluorophenyl)piperidine-1-carbonyl]-4-(5-methoxy-2-methylphenylamino)pyridine-2-sulfonamide], the inhibition at up to 1 µM was at least 50%.

For the molecule `NS(=O)(=O)c1cc(Nc2ccc3c(c2)CCO3)c(C(=O)N2CCC(c3ccc(F)cc3)CC2)cn1` [Compound 94, 4-(2,3-dihydrobenzofuran-5-ylamino)-5-[4-(4-fluorophenyl)piperidine-1-carbonyl]pyridine-2-sulfonamide], the inhibition at up to 1 µM was at least 50%.

Consider `NS(=O)(=O)c1cc(Nc2ccccc2)c(C(=O)N2CCC(c3ccc(F)cc3)CC2)cn1` [Compound 95, 5-[4-(4-fluorophenyl)piperidine-1-carbonyl]-4-(phenylamino)pyridine-2-sulfonamide], for which the inhibition at up to 1 µM was at least 50%.

As to `Cc1cccc(Nc2cc(S(N)(=O)=O)ncc2C(=O)N2CCC(c3ccc(F)cc3)CC2)c1` [Compound 96, 5-[4-(4-fluorophenyl)piperidine-1-carbonyl]-4-(m-tolylamino)pyridine-2-sulfonamide], the inhibition at up to 1 µM is at least 50%.
